In US20230372434A1, “METHOD OF TREATING FIBROSIS WITH A COMBINATION THERAPY” (COHBAR, INC., priority 2020, published 2023):
Square brackets hold non-standard residues; d marks the D form. Primed or numbered codes have the meaning given here. Ends that are not written are not given here. PEG12′ = not defined here; Nle = CCCC[C@H](N)C(=O)O

Key:
[1] = test system: established lung fibrosis induced by bleomycin in male C57BL/6 mice; assay: Therapeutic mouse model of idiopathic pulmonary fibrosis, peptide combined with nintedanib (Example 1); type: in vivo; details: peptide 5 mg/kg/day IP; for Mean Pro-inflammatory Cytokine Level IFNγ / Mean Pro-inflammatory Cytokine Level IL-1β / Mean Pro-inflammatory Cytokine Level IL-6 / Mean Pro-inflammatory Cytokine Level KC/GRO / Mean Pro-inflammatory Cytokine Level MCP-1 / Mean Pro-inflammatory Cytokine Level MIP-1α / Mean Pro-inflammatory Cytokine Level TNFα: BALF, MSD; for Mean Pro-inflammatory Cytokine Level IFNγ / Mean Pro-inflammatory Cytokine Level IL-1β / Mean Pro-inflammatory Cytokine Level IL-6 / Mean Pro-inflammatory Cytokine Level KC/GRO / Mean Pro-inflammatory Cytokine Level MCP-1 / Mean Pro-inflammatory Cytokine Level MIP-1α / Mean Pro-inflammatory Cytokine Level TNFα / Mean (SEM) Number of Lymphocytes in BALF / Mean (SEM) Number of Macrophages in BALF / Mean (SEM) Number of Neutrophils in BALF: Day 21, nintedanib 60 mg/kg/day PO; for Mean (SEM) Normalized Lung Weight / Mean (SEM) Ashcroft Score / Mean (SEM) Collagen Deposition Score in Lung Tissue / Mean (SEM) Soluble Collagen Content in BALF: Day 21 after 14 days of daily treatment, nintedanib 60 mg/kg/day PO; for Mean (SEM) Ashcroft Score: H&E; for Mean (SEM) Collagen Deposition Score in Lung Tissue: Masson's Trichrome; for Mean (SEM) Soluble Collagen Content in BALF: Sircol assay
Experimental: The effect of combining the peptides of Formula I with a second antifibrotic drug on the progression of established lung fibrosis were assessed by monitoring lung fibrosis, lung weight, inflammatory cells in bronchoalveolar lavage fluid (BALF), soluble collagen in BALF, cytokine secretion, and body weight change in a therapeutic mouse model of idiopathic pulmonary fibrosis. Lung fibrosis was induced in lungs of male C57BL/6 mice between the ages of 6 to 8 weeks by nasophayngeal administration of bleomycin (1.5U/kg using bleomycin clinical formulation diluted in PBS). A control group of animals were administered saline by the nasopharyngeal route (no-bleomycin control group). After one week, bleomycin-treated animals were randomized to treatment groups (N=10 per group) by body weight and treated daily with vehicle control, nintedanib (60 mg/kg/day PO), peptide (5 mg/kg/day by intraperitoneal injection), or the combination of nintedanib (60 mg/kg/day PO) and peptide (5 mg/kg/day by intraperitoneal injection). After 14 days of treatment (Day 21), lungs were removed and weighed. The post-caval lobe was separated and snap frozen. The lungs were flushed with Hanks Buffer and bronchoalveolar lavage fluid (BALF) was harvested from each animal Differential cell counts in BALF were obtained. Levels of pro-inflammatory cytokines in BALF were determined using a meso scale discovery (MSD) system. Slides were prepared from the remaining BALF leukocytes, fixed and stained with May Geimsa stain and the differential counts were recorded manually. BALF was evaluated for soluble collagen using a Sircol assay. Lungs were fixed in 10% neutral buffered formalin (NBF) for histopathological analysis. Fibrosis was assessed by histopathological analysis of H&E stained mouse lungs using an Ashcroft scoring system. Collagen deposition in lung tissue was assessed by histopathological analysis of Masson's Trichrome stained mouse lungs using a standard scoring system for severity.

[2] = test system: established lung fibrosis induced by bleomycin in male C57BL/6 mice; assay: Therapeutic mouse model of idiopathic pulmonary fibrosis, peptides alone (Example 2); type: in vivo
Experimental: The effect of the peptides on the progression of established lung fibrosis were assessed by monitoring lung fibrosis, lung weight, inflammatory cells in bronchoalveolar lavage fluid (BALF), soluble collagen in BALF, cytokine secretion in BALF, and body weight change in a therapeutic mouse model of idiopathic pulmonary fibrosis. Lung fibrosis was induced in lungs of male C57BL/6 mice between the ages of 6 to 8 weeks by nasophayngeal administration of bleomycin (1.5 U/kg using bleomycin clinical formulation diluted in PBS). A control group of animals were administered saline by the nasopharyngeal route (no-bleomycin control group). After one week, bleomycin-treated animals were randomized to treatment groups (N=10 per group) by body weight and treated daily with vehicle control, nintedanib positive control (60 mg/kg/day PO) or peptide (5 or 15 mg/kg/day by intraperitoneal injection). After 14 days of treatment (Day 21), lungs were removed and weighed. The post-caval lobe was separated and snap frozen. The lungs were flushed with Hanks Buffer and bronchoalveolar lavage fluid (BALF) was harvested from each animal Total BALF leukocyte were counted. Slides were prepared from the remaining BALF leukocytes, fixed and stained with May Geimsa stain and the differential counts were recorded manually. BALF was evaluated for soluble collagen using a Sircol assay. Lungs were fixed in 10% neutral buffered formalin (NBF) for histopathological analysis. Fibrosis was assessed by histopathological analysis of H&E stained mouse lungs using an Ashcroft scoring system. Collagen deposition in lung tissue was assessed by histopathological analysis of Masson's Trichrome stained mouse lungs using a standard scoring system for severity.

| Compound | Mean Pro-inflammatory Cytokine Level IFNγ [1] [pg/mL] | Mean Pro-inflammatory Cytokine Level IL-1β [1] [pg/mL] | Mean Pro-inflammatory Cytokine Level IL-6 [1] [pg/mL] | Mean Pro-inflammatory Cytokine Level KC/GRO [1] [pg/mL] | Mean Pro-inflammatory Cytokine Level MCP-1 [1] [pg/mL] | Mean Pro-inflammatory Cytokine Level MIP-1α [1] [pg/mL] | Mean Pro-inflammatory Cytokine Level TNFα [1] [pg/mL] | Mean (SEM) Number of Lymphocytes in BALF [1] | Mean (SEM) Number of Macrophages in BALF [1] | Mean (SEM) Number of Neutrophils in BALF [1] | Mean (SEM) Normalized Lung Weight [1] | Mean (SEM) Ashcroft Score [1] | Mean (SEM) Collagen Deposition Score in Lung Tissue [1] | Mean (SEM) Ashcroft Score ([2]; Day 21, 15 mg/kg/day IP) | Mean (SEM) Collagen Content in BALF ([2]; Day 21, 15 mg/kg/day IP) | Mean (SEM) Collagen Deposition Score in Lung Tissue ([2]; Day 21, 15 mg/kg/day IP) | Mean (SEM) Normalized Lung Weight ([2]; Day 21, 15 mg/kg/day IP) | Mean (SEM) Number of Lymphocytes in BALF ([2]; Day 21, 15 mg/kg/day IP) | Mean (SEM) Number of Macrophages in BALF ([2]; Day 21, 15 mg/kg/day IP) | Mean (SEM) Number of Neutrophils in BALF ([2]; Day 21, 15 mg/kg/day IP) | further results |
| --- | --- | --- | --- | --- | --- | --- | --- | --- | --- | --- | --- | --- | --- | --- | --- | --- | --- | --- | --- | --- | --- |
| COC(=O)c1ccc2c(c1)NC(=O)/C2=C(\Nc1ccc(N(C)C(=O)CN2CCN(C)CC2)cc1)c1ccccc1 [Nintedanib, nintedanib, reference compound] | 0.019 | 0.50 | 384 | 29.3 | 35.8 | 1.05 | 2.76 | 18700 (5200) | 49200 (6450) | 3040 (1370) | 1.49 (0.17) | 2.82 (0.39) | 2.22 (0.43) |  |  |  |  |  |  |  | Mean (SEM) Soluble Collagen Content in BALF [1]: 0.048 (0.005) mg/mL; Mean (SEM) Ashcroft Score ([2]; Day 21, 60 mg/kg/day PO): 2.35 (0.38); Mean (SEM) Collagen Content in BALF ([2]; Day 21, 60 mg/kg/day PO): 0.061 (0.011) mg/mL; Mean (SEM) Collagen Deposition Score in Lung Tissue ([2]; Day 21, 60 mg/kg/day PO): 2.20 (0.36); Mean (SEM) Normalized Lung Weight ([2]; Day 21, 60 mg/kg/day PO): 1.16 (0.07); Mean (SEM) Number of Lymphocytes in BALF ([2]; Day 21, 60 mg/kg/day PO): 1180 (631); Mean (SEM) Number of Macrophages in BALF ([2]; Day 21, 60 mg/kg/day PO): 5030 (823); Mean (SEM) Number of Neutrophils in BALF ([2]; Day 21, 60 mg/kg/day PO): 201 (77) |
| RVIR(Nle)CLGVGLLGDL(dA)GK{PEG12} (RVIR[Nle]CLGVGLLGDL[dA]GK(PEG12′); also: homodimer, disulfide at Cys6) [SEQ ID NO: 32] | 0.020 | 0.07 | 269 | 21.5 | 29.7 | 0.95 | 3.05 | 28600 (5480) | 86600 (7070) | 5850 (2220) | 1.57 (0.20) | 3.12 (0.45) | 2.56 (0.48) | 2.26 (0.35) | 0.091 (0.016) mg/mL | 2.10 (0.35) | 1.20 (0.05) | 1270 (584) | 5030 (974) | 96 (64) | Mean (SEM) Soluble Collagen Content in BALF [1]: 0.058 (0.005) mg/mL; Mean (SEM) Ashcroft Score ([2]; Day 21, 5 mg/kg/day IP): 2.26 (0.27); Mean (SEM) Collagen Content in BALF ([2]; Day 21, 5 mg/kg/day IP): 0.074 (0.019) mg/mL; Mean (SEM) Collagen Deposition Score in Lung Tissue ([2]; Day 21, 5 mg/kg/day IP): 2.20 (0.25); Mean (SEM) Normalized Lung Weight ([2]; Day 21, 5 mg/kg/day IP): 1.17 (0.03); Mean (SEM) Number of Lymphocytes in BALF ([2]; Day 21, 5 mg/kg/day IP): 946 (579); Mean (SEM) Number of Macrophages in BALF ([2]; Day 21, 5 mg/kg/day IP): 5530 (1090); Mean (SEM) Number of Neutrophils in BALF ([2]; Day 21, 5 mg/kg/day IP): 61 (61) |
| RVIRACLGVGLLGDL(dA)GK{PEG12} (RVIRACLGVGLLGDL[dA]GK(PEG12′); also: homodimer) [SEQ ID NO: 30] | 0.037 | 0.03 | 64.6 | 16.7 | 7.59 | 0.52 | 2.85 | 8930 (3350) | 41700 (5740) | 1830 (1080) | 1.36 (0.10) | 2.93 (0.33) | 2.30 (0.26) | 2.00 (0.37) | 0.063 (0.007) mg/mL | 1.80 (0.33) | 1.22 (0.11) | 896 (254) | 3780 (559) | 122 (88) | Mean (SEM) Soluble Collagen Content in BALF [1]: 0.067 (0.013) mg/mL; Mean (SEM) Ashcroft Score ([2]; Day 21, 5 mg/kg/day IP): 1.92 (0.21); Mean (SEM) Collagen Content in BALF ([2]; Day 21, 5 mg/kg/day IP): 0.071 (0.020) mg/mL; Mean (SEM) Collagen Deposition Score in Lung Tissue ([2]; Day 21, 5 mg/kg/day IP): 1.67 (0.29); Mean (SEM) Normalized Lung Weight ([2]; Day 21, 5 mg/kg/day IP): 1.15 (0.03); Mean (SEM) Number of Lymphocytes in BALF ([2]; Day 21, 5 mg/kg/day IP): 1210 (664); Mean (SEM) Number of Macrophages in BALF ([2]; Day 21, 5 mg/kg/day IP): 5070 (1130); Mean (SEM) Number of Neutrophils in BALF ([2]; Day 21, 5 mg/kg/day IP): 0 (0) |
| RVIRACLGVGLLGDLAGK{PEG12} (RVIRACLGVGLLGDLAGK(PEG12′); also: homodimer, disulfide at Cys6) [SEQ ID NO: 36] |  |  |  |  |  |  |  |  |  |  |  |  |  | 3.33 (0.33) | 0.068 (0.008) mg/mL | 2.89 (0.35) | 1.32 (0.12) | 884 (442) | 6430 (930) | 165 (140) | Mean (SEM) Ashcroft Score ([2]; Day 21, 5 mg/kg/day IP): 2.65 (0.40); Mean (SEM) Collagen Content in BALF ([2]; Day 21, 5 mg/kg/day IP): 0.081 (0.010) mg/mL; Mean (SEM) Collagen Deposition Score in Lung Tissue ([2]; Day 21, 5 mg/kg/day IP): 2.50 (0.37); Mean (SEM) Normalized Lung Weight ([2]; Day 21, 5 mg/kg/day IP): 1.19 (0.06); Mean (SEM) Number of Lymphocytes in BALF ([2]; Day 21, 5 mg/kg/day IP): 987 (316); Mean (SEM) Number of Macrophages in BALF ([2]; Day 21, 5 mg/kg/day IP): 5180 (1030); Mean (SEM) Number of Neutrophils in BALF ([2]; Day 21, 5 mg/kg/day IP): 113 (60) |
| RVIRMCLGVGLLGDLAGK{PEG12} (RVIRMCLGVGLLGDLAGK(PEG12′); also: homodimer, disulfide at Cys6) [SEQ ID NO: 28] |  |  |  |  |  |  |  |  |  |  |  |  |  | 2.24 (0.25) | 0.080 (0.016) mg/mL | 2.00 (0.26) | 1.27 (0.05) | 1210 (233) | 6340 (792) | 261 (117) |  |
